Reference: patent US20170128407A1, “NOVEL FORMULATIONS” (priority 2015, published 2017)
≈ marks a conversion by molar mass, not a printed value. Where two headings read alike, the source gives them in different places.

Legend:
[1] = in water and propylene glycol, storage; cited from earlier work
[2] = cited from earlier work
[3] = BPO solubility in water and in binary mixtures with surfactants; conditions: water
From the text: The concentration of all surfactants was fixed at 6% w/w active.

[4] = Chemical stability of BPO in wash formulations, shelf life prediction; type: physicochemical; conditions: wash formulations with increasing sorbitol concentrations
Procedure: BPO stability in the formulations of the present invention were assessed over time at 25° C./60% RH and 30° C./65% RH using environmentally controlled chambers. Specifically formulations containing 2.5% BPO or 10% BPO in glass vials were placed on stability, and monitored for BPO degradation.
Chemical stability of the BPO in surfactant based wash products is a challenge due to increased solubility of the BPO in these systems.

| effect on BPO stability (benzoic acid generated) [4] | SMILES | stability of benzoyl peroxide in suspension (dispersed form) [1] | half-life of BPO in solution in water ([2]; pH 4) | half-life of BPO in solution in water ([2]; pH 7) | solubility [3] |
| --- | --- | --- | --- | --- | --- |
|  | O=C(OOC(=O)c1ccccc1)c1ccccc1 [BPO, Benzoyl peroxide] | not degraded after 90 days | 11.87 h | 5.20 h | 3 µg/mL (≈ 12.4 µM) |
| improve BPO stability | OC[C@@H](O)[C@@H](O)[C@H](O)[C@@H](O)CO [sorbitol, D-Sorbitol] |  |  |  |  |
